This note sets out measurements from patent US20250144107A1, “USE OF A PIKFYVE INHIBITOR IN COMBINATION WITH IMMUNOTHERAPY” (The Regents of the University of Michigan, priority 2023, published 2025).

The test system of one assay is cDCs. Briefly: Phenotype of cultured cDCs (flow cytometry, western blot). In kind it is cell-based, mice. Particulars: DCs in vitro, each agent. The protocol:
FIG. 13G (Left) is a line graph of the relative median fluorescent intensity of the surface MHC-I on DMSO or apilimod-treated cDCs treated for 20 hours after 6 days of culture. FIG. 13G (Right) is a box and whisker plot of the surface MHC-I on DMSO or apilimod-treated cDCs treated for 20 hours after 6 days of culture
FIG. 13H a western blot showing the total vinculin, loading control, and total MHC-I in DMSO or apilimod-treated, 20 hours, cDC lysates after 6 days of culture.
FIG. 13K (Left) is a line graph of the relative median fluorescent intensity of the surface MHC-II on DMSO or apilimod-treated, 20 hours, cDCs treated after 6 days of culture. FIG. 13K (Right) is a box and whisker plot of the surface MHC-II on DMSO or apilimod-treated, 20 hours, cDCs treated after 6 days of culture.
FIG. 13L a western blot showing the total vinculin, loading control, and total MHC-II in DMSO or apilimod-treated, 20 hours, cDC lysates after 6 days of culture.
FIG. 13N a western blot showing the total histone H3, loading control, and total CD80 and CD86 in apilimod-treated, 20 hours, PIKfyve WT vs. KO cDC lysates after 6 days of culture.
FIG. 13P is a series of six scatter plots of surface CD80 and CD86 on DMSO or apilimod-treated cDCs, with or without 20 hours of PolyI:C, 50 μg/ml, or lipopolysaccharide (LPS), 50 ng/ml, treatment after 6 days of culture.
FIG. 13R a western blot showing the total vinculin, loading control, and total CD40 in DMSO or apilimod-treated, 20 hours, cDC lysates treated with or without additional LPS, 50 ng/ml, after 6 days of culture day 6.
FIG. 19B is a line graph of representative density plot of median fluorescent intensity of surface XCR1 in DMSO or apilimod-treated, 20 hours, cDCs after 6 days of culture.
FIG. 26G is a line graph of the relative median fluorescent intensity of the surface MHC-I, H2-kb, H2-kd, on DMSO or apilimod-treated cDCs with or without PolyI:C, 50 μg/ml or LPS, 50 ng/ml, treatment, 20 hours, after 6 days of culture.
FIG. 26H is a line graph of the relative median fluorescent intensity of the surface MHC-II, MHC-IA-IE, on DMSO or apilimod-treated cDCs with or without PolyI:C, 50 μg/ml or LPS, 50 ng/ml, treatment, 20 hours, after 6 days of culture.
(In flow cytometry, cells or beads pass a laser one at a time.)

Another assay concerns KPC1361 cells. Briefly: MHC-I surface expression in Pikfyve-wildtype, Pikfyve-null, Atg5-null or Atg7-null cells. In kind it is cell-based, mouse. Particulars: Pikfyve-wildtype cells, autophagy inhibition. An excerpt:
FIG. 1F (Left) is line graphs of flow cytometry measuring MHC-I surface expression in KPC1361 cells with or without Pikfyve KO, treated with DMSO, Bafilomycin, chloroquine, Apilimod, or ESK981; (Right) is bar graphs of quantification of flow cytometry measuring MHC-I surface expression in KPC1361 cells with or without Pikfyve KO, treated with DMSO, Bafilomycin, chloroquine, Apilimod, or ESK981.
FIG. 1G (Left) is a line graph of flow cytometry measuring MHC-I surface expression in KPC1361 cells with non-targeting single-guide RNA (control), or single-guide RNAs depleting Atg5 or Atg7, treated with DMSO or Apilimod; (Right) is a bar graph of quantification of flow cytometry measuring MHC-I surface expression in KPC1361 cells with non-targeting single-guide RNA (control), or single-guide RNAs depleting Atg5 or Atg7, treated with DMSO or Apilimod.
Cancer cells or the OVA-expressing cancer cells treated in vitro were harvested from dishes, resuspended in buffer MACS (PBS containing 2% FBS and 2 mM EDTA), and stained with Zombie NIR™ Fixable Viability kit (BioLegend: #423106) and fluorophore-conjugated antibody against MHC-I or PE-conjugated antibody against SIINFEKL bound H-2Kb (BioLegend; catalog #141604), respectively. The cells were next washed twice with 1 ml MACS and fixed with 2% paraformaldehyde in PBS for 15 minutes at room temperature. The cells were then subjected to the flow cytometer (SONY SH800S) for measuring surface expression of MHC-I or SIINFEKL bound H-2Kb, respectively. Antibodies used in this study include anti-H-2Kb (BD Biosciences; catalog #553570) and anti-H-2Db (28-14-8; Thermo Fisher Scientific; catalog #12-5999-82) for KPC1361 and B16-F10, anti-H-2Kd (BD Biosciences; catalog #562004) and anti-H-2Dd (BD Biosciences; catalog #553580) for 4T1, anti-H-2Kq (BD Biosciences; catalog #742296) and anti-H-2Dq/H-2Lq (BD Biosciences; catalog #744853) for MyC-CaP, and anti-HLA-A,B,C (clone w6/32; BioLegend; catalog #311406) for human cancer cells.

Another assay relates to B16F10-OVA tumors. Briefly: B16F10-OVA tumor model with PolyI:C adjuvant. In kind it is in vivo, mice. Particulars: treatment after inoculation, each agent alone. On the procedure: FIG. 16F is a series of four line graphs of the Individual growth curves of subcutaneous B16F10-OVA tumor volume following 21 days of pre-treatment with vehicle versus apilimod, 30 mg/kg daily, with or without subcutaneous injection of water versus PolyI:C, 100 μg on Day 1 and Day 14.
FIG. 16H is a series of four line graphs of the Individual growth curves of subcutaneous B16F10-OVA tumor volume in mice treated with vehicle or apilimod, 30 mg/kg daily, with or without a subcutaneous injection of water versus PolyI:C, 100 μg once weekly.
FIG. 26I is a line graph of the subcutaneous tumor volume of B16F10-OVA tumors following 21 days of pre-treatment with vehicle versus apilimod, 30 mg/kg×5 days/week, with or without subcutaneous injection of water versus PolyI:C, 100 μg on Day 1 and Day 14.
FIG. 26J is a line graph of the subcutaneous tumor volume of B16F10-OVA tumors in mice treated with vehicle or apilimod, 30 mg/kg×5 days/week, with or without subcutaneous injection of water versus PolyI:C, 100 μg once weekly.

As for lipopolysaccharide [LPS], in the assay on cDCs, the “MHC-I and MHC-II expression” value is reported as “stimulated”.

As for `CCN(CC)CCCC(C)Nc1ccnc2cc(Cl)ccc12` (centres unmarked) [chloroquine], the MHC-I surface expression entry in the assay on KPC1361 cells is “induced”.

Consider PolyI:C, for which the “MHC-I and MHC-II expression” value in the assay with cDCs was “stimulated”. Moreover, in the assay on B16F10-OVA tumors, the tumor growth entry is “modest tumor growth inhibition”.

Regarding bafilomycin, in the assay on KPC1361 cells, the MHC-I surface expression entry was “induced”.
